Reference: US10736863B2, “Methods of inhibiting cataracts and presbyopia” (UNIVERSITY OF MASSACHUSETTS, priority 2015, dated 2020)

Biological target: T1, human γD-crystallin protein (Homo sapiens, UniProt P07320)
T1 construct: 6xHis (N); made in house; host or cells: E. coli (M15pRep; TAM 1 is also named as an expression line); pQe1 plasmids from the King Labs, MIT
T1 sequence (P07320 1-174): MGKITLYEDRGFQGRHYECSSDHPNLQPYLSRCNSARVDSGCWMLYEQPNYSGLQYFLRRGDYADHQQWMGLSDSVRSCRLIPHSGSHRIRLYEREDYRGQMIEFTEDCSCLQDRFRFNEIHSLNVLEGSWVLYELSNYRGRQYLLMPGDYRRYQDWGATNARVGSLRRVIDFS
Test: Dynamic light scattering of γD-crystallin protein modified with CA(PEG)n
Type: biochemical
Excerpt: The γD- and γS-crystallin DNA sequences are in pQe1 plasmids that were provided by the King Labs at Massachusetts Institute of Technology (Cambridge, Mass.). γ-crystallin protein sequences contain a 6×N-terminal histidine tag (his tag) for purification purposes. The plasmids were transformed into a cloning competent cell line to create additional plasmid DNA. Plasmids were subsequently transformed into an expression competent cell line for protein synthesis (TAM 1 E. coli cells (Active Motif. Carlsbad, Calif.)).
γ-crystallin plasmid DNA was chemically transformed into M15pRep E. coli cells for protein synthesis. 1 L cultures were grown for protein purification. γ-crystallin protein was purified by Ni affinity chromatography. The N-terminal His tag contained on the γ-crystallin proteins preferentially binds to the Ni column. The bound protein can be eluted with an imidazole gradient which competitively binds to the Ni, releasing the purified protein. The procedure for purification is briefly (as before): protein is loaded on column, and washed first with 20 mM (0% B), then 35 mM (10% B), then 60 mM (20% B) imidazole. Protein is then eluted at 150 mM (57% B) imidazole. Purity was confirmed by SDS PAGE gel electrophoresis and fast protein liquid chromatography (FPLC).
Chemical Modification Protocol: • 1) A batch of purified protein was buffer exchanged into PBS pH=6.8 using a HiTrap™ desalting column. • (2) Concentration (A280) was measured prior to the addition of CA(PEG)n. • (3) 100 mg of CA(PEG)n was added to a 3-5 ml batch of the above protein. • (4) The mixture was placed on a shaker at 4° C. at 250 RPM overnight.
First a solution of unmodified γD-crystallin protein at a concentration of 0.1 mg/mL was studied by DLS. The measured correlation function g2-1 is plotted against the delay time (lag time) is given for the scattering angle of 30° in FIG. 2. The CONTIN analysis of the weight of various relaxation times is given in FIG. 3 for scattering angles ranging from 30° to 60°. It is clear that there are two populations in the solution, one corresponding to aggregates and the other corresponding to unaggregated protein.

[1] = 0.9 mg/mL of protein and 33 mg/ml of CA(PEG)n
[2] = 0.4 mg/mL of protein and 15 mg/ml of CA(PEG)2
[3] = 0.3 mg/mL of protein and 11 mg/ml of CA(PEG)3

SMILES	aggregate population of γD-crystallin by dynamic light scattering [1]	size of the unaggregated protein by dynamic light scattering [1] [nm]	other results
NCCOCCC(=O)O [CA(PEG)1]	absent	2	–
NCCOCCOCCC(=O)O [CA(PEG)2]	–	–	aggregate population of γD-crystallin by dynamic light scattering [2]: absent; size of the unaggregated protein by dynamic light scattering [2]: 2 nm
NCCOCCOCCOCCC(=O)O [CA(PEG)3]	–	–	aggregate population of γD-crystallin by dynamic light scattering [3]: absent; size of the unaggregated protein by dynamic light scattering [3]: 2 nm
NCCOCCOCCOCCOCCC(=O)O [CA(PEG)4]	absent	2	–
